Source: patent publication US20220233743A1, “WOUND CLOSURE ENHANCEMENT METHODS AND MATERIALS VIA MANIPULATION OR AUGMENTATION OF LIPIN-1” (Board of Supervisors of Louisiana State University and …, priority 2019, published 2022)

System: BMDMs
Experiment: OCR in response to AC with and without etomoxir, Seahorse
Assay type: cell-based, mouse
Conditions: for OCR in response to AC with pretreatment of etomoxir: 40 μM etomoxir 15 min, then AC 4:1
Experimental: Thymocytes (Jurkats) were subjected to UV light for 20 min in a 10-cm dish in sterile PBS. Cells were collected, and media was changed to D10 media followed by a 2-h incubation at 37° C. to allow for cells to become apoptotic. Cells were collected and centrifuged at 400×g for 5 min. Cells were resuspended in 2×10^−6 M PKH26 for 3 min. Staining was stopped by adding equivalent volumes of FBS.
BMDMs collected from lipin-1^mEnzyKO, lipin-1^mKO, and littermate control mice were seeded at a density of 150,000 cells per well on XF24 cell culture microplates and allowed to incubate for 4 h. Experiments were conducted in XF assay medium containing 25 mM glucose, 2 mM 1-glutamine, and 1 mM sodium pyruvate and analyzed using a Seahorse XFe 24 extracellular flux analyzer (Agilent Technologies). Where indicated, the following were injected: ATP-synthesis inhibitor oligomycin (Oligo; 1 μM), carbonyl cyanide 4-(trifluoromethoxy)phenylhydrazone (FCCP) (2 μM) to uncouple ATP synthesis, rotenone (100 nM) to block complex I, and antimycin A (1 μM) (Sigma-Aldrich) to block complex III. Oxygen consumption rate (OCR) was analyzed using Wave Desktop software (Agilent Technologies).
The inventors have shown that lipin-1 is required for increased OCR in response to free fatty acids, but the inventors wanted to know if lipin-1 regulates β-oxidation in response to AC during efferocytosis. BMDMs from WT, lipin-1^mEnzyKO, and lipin-1^mKO mice were either pretreated with or without etomoxir to prevent fatty acid transport into the mitochondria followed by the addition of AC to the macrophages at an AC/BMDM ratio of 4:1. AC were incubated with BMDMs for 30 min prior to the start of Seahorse analysis. […] Etomoxir treatment of unstimulated (no AC) WT, lipin-1 EKO, and lipin-1 KO macrophages allowed the inventors to determine basal lipid use.

CCOC(=O)[C@@]1(CCCCCCOc2ccc(Cl)cc2)CO1 [etomoxir]
OCR in response to AC with pretreatment of etomoxir (WT macrophages): significant reduction
OCR in response to AC with pretreatment of etomoxir (lipin-1 EKO macrophages): significant reduction
OCR in response to AC with pretreatment of etomoxir (lipin-1 KO macrophages): no significant difference in OCR
OCR with etomoxir alone (basal lipid use) (unstimulated (no AC) WT macrophages): significant reduction in OCR
OCR with etomoxir alone (basal lipid use) (unstimulated (no AC) lipin-1 EKO macrophages): significant reduction in OCR
OCR with etomoxir alone (basal lipid use) (unstimulated (no AC) lipin-1 KO macrophages): significant reduction in OCR
